According to ChEMBL document CHEMBL4414631 (J Med Chem, 2019):

How the values were obtained:
[1] = molecular target: Phosphatidylinositol 4,5-bisphosphate 3-kinase catalytic subunit gamma isoform (Homo sapiens, UniProt P48736)
Description: Inhibition of PI3Kgamma (unknown origin) using biotin-PIP3 as substrate preincubated for 15 mins followed by substrate addition and measured after 60 mins by fluorescence polarization assay

[2] = molecular target: T1, Phosphatidylinositol 4,5-bisphosphate 3-kinase catalytic subunit delta isoform (Homo sapiens, UniProt O00329)
T1 sequence (O00329 whole entry): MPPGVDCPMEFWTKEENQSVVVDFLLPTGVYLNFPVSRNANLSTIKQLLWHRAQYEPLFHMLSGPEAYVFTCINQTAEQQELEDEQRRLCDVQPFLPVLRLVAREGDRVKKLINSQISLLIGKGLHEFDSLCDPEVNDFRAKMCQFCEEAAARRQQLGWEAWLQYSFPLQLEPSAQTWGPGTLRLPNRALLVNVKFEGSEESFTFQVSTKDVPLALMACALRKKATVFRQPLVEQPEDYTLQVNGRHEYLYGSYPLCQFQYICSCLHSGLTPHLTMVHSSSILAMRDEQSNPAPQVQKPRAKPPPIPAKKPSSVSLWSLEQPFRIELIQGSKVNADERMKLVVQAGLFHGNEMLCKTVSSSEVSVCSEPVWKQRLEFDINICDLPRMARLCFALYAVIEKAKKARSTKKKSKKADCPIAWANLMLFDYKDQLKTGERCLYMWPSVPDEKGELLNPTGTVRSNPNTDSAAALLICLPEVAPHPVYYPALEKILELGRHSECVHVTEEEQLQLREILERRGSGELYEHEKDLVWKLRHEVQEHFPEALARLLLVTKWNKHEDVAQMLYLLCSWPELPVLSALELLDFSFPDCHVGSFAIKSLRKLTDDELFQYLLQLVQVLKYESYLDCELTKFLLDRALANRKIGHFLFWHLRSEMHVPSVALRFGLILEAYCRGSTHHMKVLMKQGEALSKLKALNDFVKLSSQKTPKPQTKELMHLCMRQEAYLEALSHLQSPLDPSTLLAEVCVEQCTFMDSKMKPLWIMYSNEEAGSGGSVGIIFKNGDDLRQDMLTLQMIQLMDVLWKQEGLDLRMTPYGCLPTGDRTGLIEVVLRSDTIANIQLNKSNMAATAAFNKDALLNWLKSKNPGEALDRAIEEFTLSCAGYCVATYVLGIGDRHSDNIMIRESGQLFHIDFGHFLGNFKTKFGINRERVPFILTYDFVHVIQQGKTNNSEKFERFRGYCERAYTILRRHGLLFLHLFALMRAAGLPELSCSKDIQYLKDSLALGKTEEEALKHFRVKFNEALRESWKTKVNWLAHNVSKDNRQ
Description: Inhibition of PI3Kdelta (unknown origin) using biotin-PIP3 as substrate preincubated for 15 mins followed by substrate addition and measured after 60 mins by fluorescence polarization assay

[3] = molecular target: Phosphatidylinositol 4,5-bisphosphate 3-kinase catalytic subunit beta isoform (Homo sapiens, UniProt P42338); assay: Inhibition of PI3Kbeta (unknown origin) using biotin-PIP3 as substrate preincubated for 15 mins followed by substrate addition and measured after 60 mins by fluorescence polarization assay
[4] = molecular target: Phosphatidylinositol 4,5-bisphosphate 3-kinase catalytic subunit alpha isoform (Homo sapiens, UniProt P42336)
Description: Inhibition of PI3Kalpha (unknown origin) using biotin-PIP3 as substrate preincubated for 15 mins followed by substrate addition and measured after 60 mins by fluorescence polarization assay

[5] = Lipophilicity, logD of compound at pH 7.4 by HPLC-MS analysis; conditions: buffer

Phosphatidylinositol 4,5-bisphosphate 3-kinase catalytic subunit gamma isoform, sequence (P48736 whole entry, canonical isoform): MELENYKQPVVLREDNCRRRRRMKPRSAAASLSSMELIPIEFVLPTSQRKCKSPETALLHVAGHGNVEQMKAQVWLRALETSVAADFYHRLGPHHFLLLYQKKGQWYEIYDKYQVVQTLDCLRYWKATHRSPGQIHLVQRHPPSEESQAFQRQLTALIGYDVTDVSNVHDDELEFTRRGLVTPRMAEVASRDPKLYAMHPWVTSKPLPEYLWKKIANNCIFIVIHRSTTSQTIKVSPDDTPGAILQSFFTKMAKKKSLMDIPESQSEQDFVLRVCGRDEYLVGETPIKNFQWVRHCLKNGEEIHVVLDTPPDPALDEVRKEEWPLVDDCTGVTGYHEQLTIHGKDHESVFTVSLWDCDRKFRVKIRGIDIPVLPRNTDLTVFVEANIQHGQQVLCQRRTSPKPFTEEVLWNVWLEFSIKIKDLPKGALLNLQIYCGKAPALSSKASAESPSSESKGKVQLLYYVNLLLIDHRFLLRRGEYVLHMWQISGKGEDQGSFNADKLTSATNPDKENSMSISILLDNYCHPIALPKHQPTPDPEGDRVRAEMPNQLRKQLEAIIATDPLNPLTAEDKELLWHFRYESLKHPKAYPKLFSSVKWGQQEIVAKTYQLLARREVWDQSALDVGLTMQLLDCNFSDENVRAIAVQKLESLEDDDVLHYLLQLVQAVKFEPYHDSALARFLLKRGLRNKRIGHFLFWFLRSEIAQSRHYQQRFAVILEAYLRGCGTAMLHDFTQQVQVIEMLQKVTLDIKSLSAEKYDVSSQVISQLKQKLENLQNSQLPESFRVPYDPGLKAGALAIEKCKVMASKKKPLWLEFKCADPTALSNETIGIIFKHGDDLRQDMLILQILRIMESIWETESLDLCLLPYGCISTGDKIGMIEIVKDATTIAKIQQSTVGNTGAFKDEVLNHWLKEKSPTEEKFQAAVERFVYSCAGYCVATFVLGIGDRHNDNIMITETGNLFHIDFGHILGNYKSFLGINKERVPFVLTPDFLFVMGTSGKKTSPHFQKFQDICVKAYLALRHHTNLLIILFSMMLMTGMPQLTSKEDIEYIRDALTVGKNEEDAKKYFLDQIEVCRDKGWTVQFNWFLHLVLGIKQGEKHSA
Phosphatidylinositol 4,5-bisphosphate 3-kinase catalytic subunit alpha isoform, sequence (P42336 whole entry, canonical isoform): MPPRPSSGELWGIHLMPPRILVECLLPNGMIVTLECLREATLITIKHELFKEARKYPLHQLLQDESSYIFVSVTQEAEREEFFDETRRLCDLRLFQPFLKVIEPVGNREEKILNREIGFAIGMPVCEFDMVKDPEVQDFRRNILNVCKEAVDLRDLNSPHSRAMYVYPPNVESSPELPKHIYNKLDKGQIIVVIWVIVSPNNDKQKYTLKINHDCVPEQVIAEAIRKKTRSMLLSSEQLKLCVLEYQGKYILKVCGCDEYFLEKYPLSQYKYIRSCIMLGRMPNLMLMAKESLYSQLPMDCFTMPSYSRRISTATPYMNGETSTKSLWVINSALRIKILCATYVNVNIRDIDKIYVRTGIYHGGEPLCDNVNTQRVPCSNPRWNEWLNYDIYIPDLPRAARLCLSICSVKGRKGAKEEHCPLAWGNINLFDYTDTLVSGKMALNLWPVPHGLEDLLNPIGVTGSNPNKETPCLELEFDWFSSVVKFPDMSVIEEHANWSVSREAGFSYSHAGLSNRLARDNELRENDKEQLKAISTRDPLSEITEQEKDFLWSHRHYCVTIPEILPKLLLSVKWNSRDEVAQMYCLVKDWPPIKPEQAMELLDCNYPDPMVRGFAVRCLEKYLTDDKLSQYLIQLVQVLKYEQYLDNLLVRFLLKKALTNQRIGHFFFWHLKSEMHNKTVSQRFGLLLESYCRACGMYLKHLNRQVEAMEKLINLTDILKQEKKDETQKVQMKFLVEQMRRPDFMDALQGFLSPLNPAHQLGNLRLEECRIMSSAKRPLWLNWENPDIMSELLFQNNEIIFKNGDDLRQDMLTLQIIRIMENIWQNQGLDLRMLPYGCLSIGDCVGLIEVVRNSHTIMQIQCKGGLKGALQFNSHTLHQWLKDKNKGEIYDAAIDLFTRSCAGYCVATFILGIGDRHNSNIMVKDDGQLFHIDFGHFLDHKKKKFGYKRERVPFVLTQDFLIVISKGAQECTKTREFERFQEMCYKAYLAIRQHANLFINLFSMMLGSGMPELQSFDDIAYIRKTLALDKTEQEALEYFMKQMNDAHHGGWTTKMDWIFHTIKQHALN
Phosphatidylinositol 4,5-bisphosphate 3-kinase catalytic subunit beta isoform, sequence (P42338 whole entry, canonical isoform): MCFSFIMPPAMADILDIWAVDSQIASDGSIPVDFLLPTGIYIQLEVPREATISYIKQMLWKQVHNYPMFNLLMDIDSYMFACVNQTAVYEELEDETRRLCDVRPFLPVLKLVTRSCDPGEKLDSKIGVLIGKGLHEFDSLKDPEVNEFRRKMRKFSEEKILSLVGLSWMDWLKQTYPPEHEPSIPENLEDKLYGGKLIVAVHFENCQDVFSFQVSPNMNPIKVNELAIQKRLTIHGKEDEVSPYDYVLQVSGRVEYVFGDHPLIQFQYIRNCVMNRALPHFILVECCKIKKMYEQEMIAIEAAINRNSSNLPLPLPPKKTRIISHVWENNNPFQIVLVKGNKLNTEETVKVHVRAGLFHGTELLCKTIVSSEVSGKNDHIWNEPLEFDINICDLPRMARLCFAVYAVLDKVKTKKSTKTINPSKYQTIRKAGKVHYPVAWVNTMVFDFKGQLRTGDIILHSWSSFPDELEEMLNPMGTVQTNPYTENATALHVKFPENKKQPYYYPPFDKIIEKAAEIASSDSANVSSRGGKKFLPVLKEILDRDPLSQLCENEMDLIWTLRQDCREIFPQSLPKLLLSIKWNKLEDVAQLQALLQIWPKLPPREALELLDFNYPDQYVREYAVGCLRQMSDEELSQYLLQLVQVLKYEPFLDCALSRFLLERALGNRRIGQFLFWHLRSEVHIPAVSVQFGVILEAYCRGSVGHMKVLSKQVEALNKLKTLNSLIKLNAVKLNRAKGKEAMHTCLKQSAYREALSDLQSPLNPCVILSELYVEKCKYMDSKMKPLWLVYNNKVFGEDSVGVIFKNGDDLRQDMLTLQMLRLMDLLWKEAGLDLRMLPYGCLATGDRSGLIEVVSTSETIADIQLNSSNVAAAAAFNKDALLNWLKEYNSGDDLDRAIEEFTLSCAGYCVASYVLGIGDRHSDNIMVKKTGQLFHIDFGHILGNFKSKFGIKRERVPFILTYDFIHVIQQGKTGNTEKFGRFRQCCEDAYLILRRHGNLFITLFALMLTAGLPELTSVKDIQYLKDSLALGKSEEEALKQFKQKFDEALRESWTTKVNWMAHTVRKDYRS

SMILES	IC50 [1] [nM]	IC50 [2] [nM]	IC50 [3] [nM]	IC50 [4] [nM]	logD [5]
CC(=O)N(C)C1CCN(Cc2cc3nc(-c4cccc5[nH]ncc45)nc(N4CCOCC4)c3s2)C1 (racemic)	1000	20	1000	200	3.6
CN(C1CCCN(Cc2cc3nc(-c4cnc(N)nc4)nc(N4CCOCC4)c3s2)C1)S(C)(=O)=O (racemic)	25.1	5.01	1000	39.8	3.5
CS(=O)(=O)NC1CCN(Cc2cc3nc(-c4cccc5[nH]ncc45)nc(N4CCOCC4)c3s2)CC1	794	39.8	1260	126	3.8
CC(=O)NC1CCCN(Cc2cc3nc(-c4cccc5[nH]ncc45)nc(N4CCOCC4)c3s2)C1 (racemic)	1260	79.4	6310	251	4
COCC(=O)NC1CCN(Cc2cc3nc(-c4cnc(N)nc4)nc(N4CCOCC4)c3s2)CC1	63.1	39.8	794	50.1	2.3
CNC(=O)NC1CCCN(Cc2cc3nc(-c4cnc(N)nc4)nc(N4CCOCC4)c3s2)C1 (racemic)	158	126	2000	79.4	2.6
CS(=O)(=O)NC1CCN(Cc2cc3nc(-c4cnc(N)nc4)nc(N4CCOCC4)c3s2)CC1	63.1	25.1	398	31.6	2.4
COCC(=O)N(C)C1CCN(Cc2cc3nc(-c4cccc5[nH]ncc45)nc(N4CCOCC4)c3s2)C1 (racemic)	1000	79.4	5010	631	3.8
CNC(=O)NC1CCN(Cc2cc3nc(-c4cnc(N)nc4)nc(N4CCOCC4)c3s2)CC1	63.1	39.8	631	25.1	1.9
CC(=O)N(C)C1CCN(Cc2cc3nc(-c4cnc(N)nc4)nc(N4CCOCC4)c3s2)C1 (racemic)	39.8	12.6	631	20	2.8
CC(=O)NC1CCN(Cc2cc3nc(-c4cccc5[nH]ncc45)nc(N4CCOCC4)c3s2)CC1	–	200	6310	631	3.2
CNC(=O)NC1CCN(Cc2cc3nc(-c4cccc5[nH]ccc45)nc(N4CCOCC4)c3s2)C1 (racemic)	3980	126	2000	3160	3.4
CNC(=O)N(C)C1CCCN(Cc2cc3nc(-c4cnc(N)nc4)nc(N4CCOCC4)c3s2)C1 (racemic)	200	79.4	2000	79.4	2.9
CS(=O)(=O)NC1CCCN(Cc2cc3nc(-c4cnc(N)nc4)nc(N4CCOCC4)c3s2)C1 (racemic)	39.8	15.8	316	20	3.1
CC(=O)N[C@H]1CCN(Cc2cc3nc(-c4cnc(N)nc4)nc(N4CCOCC4)c3s2)C1	251	316	3980	200	1.8
CS(=O)(=O)NC1CCN(Cc2cc3nc(-c4cccc5[nH]ccc45)nc(N4CCOCC4)c3s2)C1 (racemic)	1580	25.1	631	1580	4.3
CNC(=O)NC1CCN(Cc2cc3nc(-c4cccc5[nH]ncc45)nc(N4CCOCC4)c3s2)CC1	–	100	3160	251	3.1

SMILES	IC50 [1] [nM]	IC50 [2] [nM]	IC50 [3] [nM]	IC50 [4] [nM]	logD [5]
CS(=O)(=O)NC1CCCN(Cc2cc3nc(-c4cccc5[nH]ncc45)nc(N4CCOCC4)c3s2)C1 (racemic)	1580	50.1	7940	501	4.3
CN(C1CCN(Cc2cc3nc(-c4cccc5[nH]ncc45)nc(N4CCOCC4)c3s2)C1)S(C)(=O)=O (racemic)	398	25.1	1580	126	4.6
CN(C1CCN(Cc2cc3nc(-c4cccc5[nH]ccc45)nc(N4CCOCC4)c3s2)C1)S(C)(=O)=O (racemic)	501	10	501	631	5.1
CC(=O)N[C@@H]1CCN(Cc2cc3nc(-c4cnc(N)nc4)nc(N4CCOCC4)c3s2)C1	126	158	2000	126	1.8
CC(=O)N(C)C1CCCN(Cc2cc3nc(-c4cccc5[nH]ncc45)nc(N4CCOCC4)c3s2)C1 (racemic)	501	39.8	2000	251	4.5
CC(=O)NC1CCN(Cc2cc3nc(-c4cccc5[nH]ccc45)nc(N4CCOCC4)c3s2)C1 (racemic)	2000	63.1	1260	3160	3.7
COCC(=O)NC1CCN(Cc2cc3nc(-c4cccc5[nH]ncc45)nc(N4CCOCC4)c3s2)C1 (racemic)	794	200	3160	316	3.4
CC(=O)NC1CCN(Cc2cc3nc(-c4cnc(N)nc4)nc(N4CCOCC4)c3s2)C1 (racemic)	79.4	79.4	501	31.6	1.9
CC(=O)N(C)C1CCN(Cc2cc3nc(-c4cccc5[nH]ncc45)nc(N4CCOCC4)c3s2)CC1	1000	31.6	2000	501	4.1
CNC(=O)NC1CCN(Cc2cc3nc(-c4cccc5[nH]ncc45)nc(N4CCOCC4)c3s2)C1 (racemic)	1260	200	2510	316	2.9
CS(=O)(=O)NC1CCN(Cc2cc3nc(-c4cccc5[nH]ccc45)nc(N4CCOCC4)c3s2)CC1	1000	20	631	1260	4.4
COCC(=O)N(C)C1CCN(Cc2cc3nc(-c4cccc5[nH]ncc45)nc(N4CCOCC4)c3s2)CC1	–	25.1	1580	501	3.8
CNC(=O)N(C)C1CCN(Cc2cc3nc(-c4cccc5[nH]ncc45)nc(N4CCOCC4)c3s2)C1 (racemic)	1580	63.1	1580	794	–
COCC(=O)NC1CCN(Cc2cc3nc(-c4cccc5[nH]ncc45)nc(N4CCOCC4)c3s2)CC1	–	126	3980	398	3.9
CNC(=O)NC1CCN(Cc2cc3nc(-c4cccc5[nH]ccc45)nc(N4CCOCC4)c3s2)CC1	–	158	2510	3980	3.6
COCC(=O)NC1CCN(Cc2cc3nc(-c4cccc5[nH]ccc45)nc(N4CCOCC4)c3s2)CC1	–	79.4	–	–	4.3
CC(=O)NC1CCN(Cc2cc3nc(-c4cccc5[nH]ccc45)nc(N4CCOCC4)c3s2)CC1	–	79.4	–	3160	4
